Data on 26 molecules can be found in US12558366B2, “Bacterial DNA gyrase inhibitors and methods of use thereof” (THE FLORIDA INTERNATIONAL UNIVERSITY BOARD OF TRUSTEES, priority 2021, dated 2026).

Experiment [1] concerns the target T1, E. coli DNA gyrase (Escherichia coli, UniProt P0AES4+P0AES6). The experiment in a line: E. coli DNA gyrase inhibition (agarose gel-based and/or SDFQ-based, not specified per value). In kind it is biochemical.
For experiment [2], the system named is Mtb. The experiment is described as follows: Mtb inhibition (antibacterial activity). In kind it is cell-based, Mycobacterium tuberculosis.
Experiment [3] has as its system E. coli imp. The experiment is described as follows: microbe, parasite or virus in culture. In kind it is cell-based. To be noted: Escherichia coli. How it is done:
Antibacterial minimum inhibitory concentrations (MICs) were obtained from three independent experiments using broth microdilution methods in 96-well plates according to Clinical and Laboratory Standards Institute guidelines. Cells were culture from singles colonies in MHIIB medium for 24 h at 37° C. in agitation (200 RPM). The cultures were then diluted using the same media to reach an OD600 of 0.1. Then, 50 μL of the diluted cultures were added to the plates holding 50 μL of serially diluted compounds in MHIIB. The plates were incubated at 37° C. for 20 h. The starting inoculum was fixated to 10^5 colony-forming units per ml.

The target of experiment [4] is T1, E. coli DNA gyrase. The experiment in a line: Agarose gel-based DNA gyrase inhibition assays. In kind it is biochemical. How it is done: 100 ng of DNA gyrase was used to supercoil the rx pAB1 in the presence of different concentrations of a gyrase inhibitor. […] Samples were analyzed by electrophoresis in 1% w/v agarose gels followed by ethidium bromide staining and photographed under UV light.

Where [5] appears, read: Table 2 values, read-out: IC50 ( ≤15 μM) IC50.
The mark [6] stands for this setting: read-out: Minimum Inhibitory Concentration E. coli imp.

Read-outs that look alike come from different tables or passages of the source.

T1 sequence (P0AES4 whole entry, one chain of several): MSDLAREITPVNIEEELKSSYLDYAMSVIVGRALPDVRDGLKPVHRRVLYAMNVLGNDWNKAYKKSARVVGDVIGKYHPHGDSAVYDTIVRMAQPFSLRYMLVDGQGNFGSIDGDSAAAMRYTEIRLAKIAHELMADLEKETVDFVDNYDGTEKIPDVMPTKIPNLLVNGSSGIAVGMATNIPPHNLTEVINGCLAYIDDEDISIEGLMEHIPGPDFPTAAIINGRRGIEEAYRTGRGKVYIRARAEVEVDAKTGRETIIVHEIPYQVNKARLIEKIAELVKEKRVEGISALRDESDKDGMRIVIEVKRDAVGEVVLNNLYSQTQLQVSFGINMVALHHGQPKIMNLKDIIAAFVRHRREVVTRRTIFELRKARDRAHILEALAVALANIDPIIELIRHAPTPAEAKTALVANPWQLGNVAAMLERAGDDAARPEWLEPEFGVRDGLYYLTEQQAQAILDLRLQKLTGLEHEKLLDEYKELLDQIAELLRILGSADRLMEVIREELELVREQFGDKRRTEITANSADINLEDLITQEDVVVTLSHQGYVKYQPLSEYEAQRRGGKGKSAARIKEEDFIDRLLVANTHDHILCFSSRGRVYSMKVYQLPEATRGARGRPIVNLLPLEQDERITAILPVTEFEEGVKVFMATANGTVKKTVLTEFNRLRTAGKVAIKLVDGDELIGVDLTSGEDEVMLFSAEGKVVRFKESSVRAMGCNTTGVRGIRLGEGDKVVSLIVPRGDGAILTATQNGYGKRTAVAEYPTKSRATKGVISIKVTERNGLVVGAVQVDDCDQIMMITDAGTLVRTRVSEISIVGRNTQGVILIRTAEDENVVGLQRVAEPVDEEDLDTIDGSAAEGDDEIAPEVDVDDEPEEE

In the case of `COc1cc2ccccc2cc1C(=O)NC(=S)Nc1ccc(C(=O)O)cc1` [Compound 72], the IC50 in experiment [1] (setting [5]) is 12.4 µM.

For `COc1cc(/C=N/N=c2\[nH]c3ccccc3s2)cc([N+](=O)[O-])c1O` [Compound 178], in experiment [1] (setting [5]), the IC50 worked out at 1.56 µM. The “activity against Mtb” value in experiment [2] is given as “Mtb active hits”.

Regarding `O=C(O)CCCCCN1C(=O)/C(=C\c2ccc(-c3ccc(Cl)cc3)o2)SC1=S` [Compound 36], the IC50 in experiment [1] (setting [5]) came to 7.42 µM.

With `O=C(O)c1ccc(/N=N/C2C(O)=Nc3ccc(F)cc32)cc1` (centres unmarked) [Compound 127], the “activity against Mtb” value in experiment [2] is reported as “Mtb active hits”.

As for `O=c1ccc2cc3ccoc3cc2o1` [psoralen, reference compound], in experiment [1], the “inhibition of E. coli DNA gyrase activities” value is “not a gyrase inhibitor”.

Consider `CCCCCCCCOC(=O)c1cc(O)c(O)c(O)c1` [Octyl gallate], for which the MIC in experiment [3] (read-out: MIC (μg/ml) E. coli imp) was 14.1 µg/mL.

In the case of `Cc1cccc2c1N=C(O)C2=NNc1ccc(S(C)(=O)=O)cc1` [Compound 109], in experiment [4] (50 μM of compounds), the “inhibition of E. coli DNA gyrase activities” value is on record as “completely inhibited”.

`CC(C)(CS(=O)(=O)[O-])NC(=O)CC[N+](C)(C)CCO` [Compound 42]: the IC50 in experiment [1] (setting [5]) was determined as 2.18 µM.

On to `CNC(=O)[C@H]1O[C@@H](n2cnc3c(NCc4cccc(I)c4)nc(Cl)nc32)[C@H](O)[C@@H]1O` [Compound 76], for which, in experiment [1] (setting [5]), the IC50 was 2.53 µM.

Take `O=C(O)C(Cc1ccccc1)N1C(=O)/C(=C\C=C\c2ccco2)SC1=S` (centres unmarked) [Compound 157]: the IC50 in experiment [1] (setting [5]) was determined as 10 µM. The MIC in experiment [3] (setting [6]) came to 100 µM.

On to `Cc1cc(C)c2sc(NC(=O)C3CC3)nc2c1` [Compound 73], for which, in experiment [1] (setting [5]), the IC50 is 7.86 µM.

`O=C1NC(=S)SC1=Cc1cc(Cl)cc(Cl)c1O` [Compound 207]: the “inhibition of E. coli DNA gyrase activities” value in experiment [4] (50 μM of compounds) is recorded as “inhibited”; in experiment [4] (200 μM of compounds), “completely inhibited”. In experiment [1], the IC50 lay in the range of 50 to 200 µM.

Turning to `C[n+]1c(-c2ccc(C=NNC(=O)c3ccc(C(=O)NN=Cc4ccc(-c5cn6ccccc6[n+]5C)cc4)cc3)cc2)cn2ccccc21` [Compound 229], the IC50 in experiment [1] fell in the range of 25 to 50 µM.

On to `O=C(O)C(c1ccccc1)N1C(=O)/C(=C\c2ccc(-c3cccc(Cl)c3)o2)SC1=S` (centres unmarked) [Compound 176], for which the IC50 in experiment [1] (setting [5]) was found to be 2 µM.

Consider `O=C(NN1C(=O)/C(=C\C=C\c2ccco2)SC1=S)c1ccccc1O` [Compound 180], for which, in experiment [3] (setting [6]), the MIC was 100 µM.

Regarding `O=C(/C=C/c1ccco1)Nc1cccc2cccnc12` [Compound 164], the MIC in experiment [3] (setting [6]) was 100 µM.

`Cc1c2cc(O)c(=O)cc-2oc2cc(O)c(O)cc12` [Compound 75]: the IC50 in experiment [1] (setting [5]) came out at 5.28 µM.

Take `N#C/C(=C\c1coc2ccc(O)cc2c1=O)C(=O)/N=c1\[nH]c2ccccc2s1` [Compound 165]: the IC50 in experiment [1] (setting [5]) turned out to be 6.25 µM.

On to `Cc1cccc2c1N=C(O)C2/N=N/c1ccc(C(=O)O)cc1` (centres unmarked) [Compound 128], for which the “activity against Mtb” value in experiment [2] was “Mtb active hits”.

For the molecule `O=C(O)c1cccc(-c2ccc(/C=c3/sc4nc5ccccc5n4c3=O)o2)c1` [Compound 47], the IC50 in experiment [1] (setting [5]) was 1.87 µM. The “activity against Mtb” value in experiment [2] was “Mtb active hits”.

For the molecule `CSc1nc(SCC(=O)O)c2sc3nc(-c4ccccc4)c4c(c3c2n1)CCC4` [Compound 19], the IC50 in experiment [1] (setting [5]) came out at 3.55 µM. Moreover, in experiment [2], the “activity against Mtb” value is reported as “Mtb active hits”.

For the molecule `O=C1OC2(c3ccccc31)c1cc(I)c(O)c(I)c1Oc1c2cc(I)c(O)c1I` [Compound 253, Erythrosin B], in experiment [1] (setting [5]), the IC50 came out at 3.12 µM.

Turning to `CN1C[C@H](CNC(=O)OCc2ccccc2)C[C@@H]2c3cccc4c3c(cn4C)C[C@H]21` [Metergoline, reference compound], the “inhibition of gyrase activities” value in experiment [4] (at 100 and 200 μM) is recorded as “inhibits gyrase activities”.

On to `O=[N+]([O-])c1cc(/C=N/Nc2nc3ccccc3[nH]2)c(O)cc1O` [Compound 159], for which the IC50 in experiment [1] (setting [5]) came out at 6.25 µM.

`O=C1/C(=C\c2ccc(O)c([N+](=O)[O-])c2)SC(=S)N1Cc1ccccc1` [Compound 192]: in experiment [1] (setting [5]), the IC50 is 8 µM.

Turning to `O=C(O)CCN1C(=O)/C(=C/c2ccc(-c3nc4ccccc4s3)o2)SC1=S` [Compound 27], the IC50 in experiment [1] (setting [5]) is 1.74 µM.
